{
  "source": "patent US20230111310A1",
  "about": "“CARBOXYLIC ACID DERIVATIVE-SUBSTITUTED IMINO ARYL COMPOUND, PREPARATION METHOD THEREFOR, HERBICIDAL COMPOSITION AND USE THEREOF” (Qingdao Kingagroot Chemical Compound Co., Ltd., priority 2020, published 2023)",
  "type_in_all_cases": "in vivo",
  "key": {"[1]": {"system": "Lolium multiflorum Lamk.", "test": "Composition activity test, soil sealing treatment", "settings": "B 300 g a.i./ha", "method": "(§1) are as follows, and the others were purchased from reagent companies. The technical materials were all dissolved in acetone and diluted with an aqueous solution containing 0.1% emulsifier Tween-80. The dilution is performed as required.\n(§2) Weeds are cultivated in a controllable sunlight greenhouse at 20 to 30° C., in natural light, and relative humidity of 57% to 72%. […] The test soil was placed quantitatively to 3/4 of the pots and then watered from the bottom of the pots to completely wet the soil to saturation. The test weed seeds were germinated, and uniformly and quantitatively sowed on the surface, then covered with 0.5-2 cm soil according to the seed size, and ready-for use 72 hours after sowing.\n(§3) 3 pots with 30 weed seeds per pot were treated in one treatment with 4 replications per treatment.\n(§4) The well-sowed weeds were evenly placed on a platform with an area of 0.5 m^2, and a solution of agents was sprayed on the soil thereof by the 3WP-2000-type walking spray tower at a dosage of 450 kg/ha and at a spray pressure of 0.3 MPa. After all the solution was sprayed, the valve was closed. After 30 seconds, the door of the spray tower was opened, and the nutritional bowl was taken out. Then the valve was opened, and the spray tube was cleaned by spraying 50 ml of water.\n(§5) A method for investigating absolute number was employed, wherein whole seedlings of survival weeds were cut off with a blade along the soil surface, and the fresh weight of the weeds was weighed with an analytical balance. For dead weeds, the fresh weight thereof was zero.\n(§6) The investigation was performed after 21 days of the treatment for only once.\n(§7) An optimum ratio of the two active ingredients was determined by the actual control effect, characteristics of herbicides, and balance of a corresponding formula. Wherein, in the formula, X represented the fresh weight inhibition rate of the active ingredient A in a dosage of P, and Y represented the fresh weight inhibition rate of the active ingredient B in a dosage of Q. The statistical results were shown in the table 6."}, "[2]": {"system": "Descurainia sophia", "test": "Composition activity test, soil sealing treatment", "method": "as §1, §2, §3, §4, §5, §6, §7"}, "[3]": {"system": "Eleusine indica", "test": "Composition activity test, post-emergence foliage spray"}, "[4]": {"system": "Leptochloa chinensis", "test": "Composition activity test, soil sealing treatment", "method": "as §1, §2, §3, §4, §5, §6, §7"}, "[5]": {"system": "Eriochloa villosa", "test": "Composition activity test, post-emergence foliage spray"}, "[6]": {"system": "Capsella bursa-pastoris", "test": "Composition activity test, post-emergence foliage spray"}, "[7]": {"system": "Conyza Canadensis", "test": "Composition activity test, post-emergence foliage spray"}, "[8]": {"system": "Cyperus difformis", "test": "Composition activity test, post-emergence foliage spray"}, "[9]": {"system": "Cyperus serotinus", "test": "Composition activity test, post-emergence foliage spray"}, "[10]": {"system": "Amaranthus retroflexus", "test": "Composition activity test, soil sealing treatment", "method": "as §1, §2, §3, §4, §5, §6, §7"}, "[11]": {"system": "Echinochloa crusgalli", "test": "Composition activity test, soil sealing treatment", "settings": "B 600 g a.i./ha", "method": "as §1, §2, §3, §4, §5, §6, §7"}},
  "data": [
    {"smiles": "Cc1ccccc1CO[C@@H]1C[C@@]2(C(C)C)CC[C@]1(C)O2", "note": "(racemic) [cinmethylin]", "values": [
      {"measurement": "Control effect (%) of B applied alone (B)", "setting": "[1]", "value": 33.7, "unit": "%"}
    ]},
    {"smiles": "COP(=S)(OC)SCC(=O)N(c1ccc(Cl)cc1)C(C)(C)C", "note": "[anilofos]", "values": [
      {"measurement": "Control effect (%) of B applied alone (B)", "setting": "[2]; B 75 g a.i./ha", "value": 38.3, "unit": "%"}
    ]},
    {"smiles": "CC1(C)CON(Cc2ccc(Cl)cc2Cl)C1=O", "note": "[bixlozone]", "values": [
      {"measurement": "Control effect (%) of B applied alone (B)", "setting": "[3]; B 180 g a.i./ha", "value": 36.7, "unit": "%"}
    ]},
    {"smiles": "CCCCOCN(C(=O)CCl)c1c(CC)cccc1CC", "note": "[butachlor]", "values": [
      {"measurement": "Control effect (%) of B applied alone (B)", "setting": "[2]; B 225 g a.i./ha", "value": 42.2, "unit": "%"}
    ]},
    {"smiles": "CCC(C)Nc1c([N+](=O)[O-])cc(C(C)(C)C)cc1[N+](=O)[O-]", "note": "(centres unmarked) [butralin]", "values": [
      {"measurement": "Control effect (%) of B applied alone (B)", "setting": "[4]; B 180 g a.i./ha", "value": 47.4, "unit": "%"}
    ]},
    {"smiles": "CCSC(C)CC1CC(=O)C(/C(CC)=N/OC/C=C/Cl)=C(O)C1", "note": "(centres unmarked) [clethodim]", "values": [
      {"measurement": "Control effect (%) of B applied alone (B)", "setting": "[5]; B 30 g a.i./ha", "value": 35.5, "unit": "%"}
    ]},
    {"smiles": "CC1(C)CON(Cc2ccccc2Cl)C1=O", "note": "[clomazone]", "values": [
      {"measurement": "Control effect (%) of B applied alone (B)", "setting": "[3]; B 150 g a.i./ha", "value": 46.5, "unit": "%"}
    ]},
    {"smiles": "O=C(Nc1ccc(F)cc1F)c1cccnc1Oc1cccc(C(F)(F)F)c1", "note": "[diflufenican]", "values": [
      {"measurement": "Control effect (%) of B applied alone (B)", "setting": "[6]; B 75 g a.i./ha", "value": 33.1, "unit": "%"}
    ]},
    {"smiles": "c1cc[n+]2c(c1)-c1cccc[n+]1CC2", "note": "[diquat dibromide monohydrate]", "values": [
      {"measurement": "Control effect (%) of B applied alone (B)", "setting": "[7]; B 300 g a.i./ha", "value": 37.8, "unit": "%"},
      {"measurement": "Control effect (%) of B applied alone (B)", "setting": "[8]; B 300 g a.i./ha", "value": 18.4, "unit": "%"}
    ]},
    {"smiles": "CC(C)N(C(=O)COc1nnc(C(F)(F)F)s1)c1ccc(F)cc1", "note": "[flufenacet]", "values": [
      {"measurement": "Control effect (%) of B applied alone (B)", "setting": "[2]; B 150 g a.i./ha", "value": 45.6, "unit": "%"}
    ]},
    {"smiles": "CNC1=C(c2cccc(C(F)(F)F)c2)C(=O)C(c2ccccc2)O1", "note": "(centres unmarked) [flurtamone]", "values": [
      {"measurement": "Control effect (%) of B applied alone (B)", "setting": "[6]; B 75 g a.i./ha", "value": 56.7, "unit": "%"}
    ]},
    {"smiles": "CP(=O)(O)CCC(N)C(=O)O", "note": "(centres unmarked) [glufosinate ammonium]", "values": [
      {"measurement": "Control effect (%) of B applied alone (B)", "setting": "[7]; B 300 g a.i./ha", "value": 57.8, "unit": "%"},
      {"measurement": "Control effect (%) of B applied alone (B)", "setting": "[9]; B 300 g a.i./ha", "value": 23.1, "unit": "%"}
    ]},
    {"smiles": "CP(=O)(O)CC[C@H](N)C(=O)O.N", "note": "[glufosinate-P-ammonium]", "values": [
      {"measurement": "Control effect (%) of B applied alone (B)", "setting": "[9]; B 150 g a.i./ha", "value": 21.4, "unit": "%"}
    ]},
    {"smiles": "O=C(O)CNCP(=O)(O)O", "note": "[glyphosate]", "values": [
      {"measurement": "Control effect (%) of B applied alone (B)", "setting": "[7]; B 450 g a.i./ha", "value": 51.2, "unit": "%"}
    ]},
    {"smiles": "Cc1ccc2c(c1)[C@H](Nc1nc(N)nc(C(C)F)n1)[C@@H](C)C2", "note": "(some centres unmarked) [indaziflam]", "values": [
      {"measurement": "Control effect (%) of B applied alone (B)", "setting": "[10]; B 15 g a.i./ha", "value": 49.3, "unit": "%"}
    ]},
    {"smiles": "CN(C(=O)COc1nc2ccccc2s1)c1ccccc1", "note": "[mefenacet]", "values": [
      {"measurement": "Control effect (%) of B applied alone (B)", "setting": "[2]; B 150 g a.i./ha", "value": 46.4, "unit": "%"}
    ]},
    {"smiles": "C[n+]1ccc(-c2cc[n+](C)cc2)cc1", "note": "[paraquat dichloride]", "values": [
      {"measurement": "Control effect (%) of B applied alone (B)", "setting": "[7]; B 225 g a.i./ha", "value": 48.4, "unit": "%"},
      {"measurement": "Control effect (%) of B applied alone (B)", "setting": "[8]; B 150 g a.i./ha", "value": 35.7, "unit": "%"}
    ]},
    {"smiles": "CCC(CC)Nc1c([N+](=O)[O-])cc(C)c(C)c1[N+](=O)[O-]", "note": "[pendimethalin]", "values": [
      {"measurement": "Control effect (%) of B applied alone (B)", "setting": "[4]; B 150 g a.i./ha", "value": 43.2, "unit": "%"}
    ]},
    {"smiles": "O=C(Nc1ccc(F)cc1)c1cccc(Oc2cccc(C(F)(F)F)c2)n1", "note": "[picolinafen]", "values": [
      {"measurement": "Control effect (%) of B applied alone (B)", "setting": "[6]; B 45 g a.i./ha", "value": 44.4, "unit": "%"}
    ]},
    {"smiles": "CCCOCCN(C(=O)CCl)c1c(CC)cccc1CC", "note": "[pretilachlor]", "values": [
      {"measurement": "Control effect (%) of B applied alone (B)", "setting": "[2]; B 180 g a.i./ha", "value": 51.2, "unit": "%"}
    ]},
    {"smiles": "CCCN(CCC)C(=O)SCc1ccccc1", "note": "[prosulfocarb]", "values": [
      {"measurement": "Control effect (%) of B applied alone (B)", "setting": "[11]", "value": 32.6, "unit": "%"}
    ]},
    {"smiles": "Cn1nc(C(F)(F)F)c(CS(=O)(=O)C2=NOC(C)(C)C2)c1OC(F)F", "note": "[pyroxasulfone]", "values": [
      {"measurement": "Control effect (%) of B applied alone (B)", "setting": "[2]; B 60 g a.i./ha", "value": 57.6, "unit": "%"}
    ]},
    {"smiles": "COC(=O)[C@@H](C)Oc1ccc(Oc2cnc3cc(Cl)ccc3n2)cc1", "note": "[quizalofop-P-methyl]", "values": [
      {"measurement": "Control effect (%) of B applied alone (B)", "setting": "[5]; B 15 g a.i./ha", "value": 41.7, "unit": "%"}
    ]},
    {"smiles": "CCc1cccc(C)c1N(C(=O)CCl)[C@@H](C)COC", "note": "[s-metolachlor]", "values": [
      {"measurement": "Control effect (%) of B applied alone (B)", "setting": "[2]; B 150 g a.i./ha", "value": 31.3, "unit": "%"}
    ]},
    {"smiles": "CCC/C(=N\\OCC)C1=C(O)CC(CC(C)SCC)CC1=O", "note": "(centres unmarked) [sethoxydim]", "values": [
      {"measurement": "Control effect (%) of B applied alone (B)", "setting": "[5]; B 45 g a.i./ha", "value": 36.7, "unit": "%"}
    ]},
    {"smiles": "Cc1cc(C)cc(OCC(C)Nc2nc(N)nc(C(C)(C)F)n2)c1", "note": "(centres unmarked) [triaziflam]", "values": [
      {"measurement": "Control effect (%) of B applied alone (B)", "setting": "[10]; B 30 g a.i./ha", "value": 42.1, "unit": "%"}
    ]}
  ]
}
